Source: ChEMBL document CHEMBL5500393, “Discovery and Optimization of Novel SaFabI Inhibitors as Specific Therapeutic Agents for MRSA Infection” (J Med Chem, 2024)
Converted amounts (≈) assume the structure as drawn.

How the values were obtained:
[1] = molecular target: T1, Enoyl-[acyl-carrier-protein] reductase [NADPH] FabI (Staphylococcus aureus) (UniProt Q6GI75); assay: Inhibition of N-terminal his 6 tagged Staphylococcus aureus Fabi (1 to […] residues) expressed in Escherichia coli BL21 at 1 uM incubated for 30 mins in presence of NADPH by fluorescence based microplate reader analysis relative to control
T1 sequence (whole entry): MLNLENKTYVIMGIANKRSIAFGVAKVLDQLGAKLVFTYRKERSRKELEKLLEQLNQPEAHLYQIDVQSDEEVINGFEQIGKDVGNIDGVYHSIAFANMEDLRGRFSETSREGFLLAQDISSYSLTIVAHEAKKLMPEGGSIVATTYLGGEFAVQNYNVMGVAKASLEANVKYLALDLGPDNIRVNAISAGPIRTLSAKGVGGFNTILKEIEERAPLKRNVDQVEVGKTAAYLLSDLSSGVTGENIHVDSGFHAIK

[2] = tested on: Enterococcus faecium; assay: Antimicrobial activity against Enterococcus faecium ATCC19434 measured after 24 hrs by CLSI protocol based microdilution method; type: functional
[3] = tested on: Staphylococcus aureus; assay: Antimicrobial activity against […] Staphylococcus aureus USA300 measured after 24 hrs by CLSI protocol based microdilution method; type: functional
[4] = tested on: Pseudomonas aeruginosa; assay: Antimicrobial activity against Pseudomonas aeruginosa PAO1 measured after 24 hrs by CLSI protocol based microdilution method; type: functional
[5] = tested on: Escherichia coli; assay: Antimicrobial activity against Escherichia coli ATCC25922 measured after 24 hrs by CLSI protocol based microdilution method; type: functional
[6] = tested on: Acinetobacter baumannii; assay: Antimicrobial activity against Acinetobacter baumannii ATCC19606 measured after 24 hrs by CLSI protocol based microdilution method; type: functional
[7] = tested on: Staphylococcus aureus; assay: Antimicrobial activity against […] Staphylococcus aureus ATCC33591 measured after 24 hrs by CLSI protocol based microdilution method; type: functional
[8] = tested on: Staphylococcus aureus; assay: Antimicrobial activity against […] Staphylococcus aureus NRS271 measured after 24 hrs by CLSI protocol based microdilution method; type: functional
[9] = molecular target: T1, Enoyl-[acyl-carrier-protein] reductase [NADPH] FabI (Staphylococcus aureus); assay: Inhibition of N-terminal his 6 tagged Staphylococcus aureus Fabi (1 to […] residues) expressed in Escherichia coli BL21 at 10 uM incubated for 30 mins in presence of NADPH by fluorescence based microplate reader analysis relative to control
[10] = tested on: Staphylococcus aureus; assay: Antimicrobial activity against methicillin-susceptible Staphylococcus aureus ATCC29213 measured after 24 hrs by CLSI protocol based microdilution method; type: functional
[11] = tested on: Staphylococcus aureus; assay: Antimicrobial activity against methicillin-susceptible Staphylococcus aureus ATCC25923 measured after 24 hrs by CLSI protocol based microdilution method; type: functional
[12] = molecular target: T2, Enoyl-[acyl-carrier-protein] reductase [NADPH] FabI (Staphylococcus aureus, UniProt Q6GI75); assay: Inhibition of N-terminal his 6 tagged Staphylococcus aureus Fabi (1 to […] residues) expressed in Escherichia coli BL21 incubated for 30 mins in presence of NADPH by fluorescence based microplate reader analysis
T2 sequence (Q6GI75 whole entry): T1 sequence (whole entry)

[13] = tested on: Staphylococcus aureus; assay: Antimicrobial activity against […] Staphylococcus aureus ATCC43300 measured after 24 hrs by CLSI protocol based microdilution method; type: functional
[14] = tested on: Enterococcus faecalis; assay: Antimicrobial activity against Enterococcus faecalis ATCC29212 measured after 24 hrs by CLSI protocol based microdilution method; type: functional
[15] = tested on: Candida albicans; assay: Antimicrobial activity against Candida albicans SC5314 measured after 48 hrs by CLSI protocol based microdilution method; type: functional

| Compound | inhibition [1] [%] | MIC [2] [µg/mL] | MIC [3] [µg/mL] | MIC [4] [µg/mL] | MIC [5] [µg/mL] | MIC [6] [µg/mL] | MIC [7] [µg/mL] | MIC [8] [µg/mL] | inhibition [9] [%] | MIC [10] [µg/mL] | MIC [11] [µg/mL] | IC50 [12] [µM] | MIC [13] [µg/mL] | MIC [14] [µg/mL] | MIC [15] [µg/mL] |
| --- | --- | --- | --- | --- | --- | --- | --- | --- | --- | --- | --- | --- | --- | --- | --- |
| Cn1c(C2CC(=O)N(c3cccc(Cl)c3Br)C2)nc2ccccc21 (stereo not given) | 46 | > 32 | 6 (≈ 14.8 µM) | > 32 | > 32 | > 32 | 8 (≈ 19.8 µM) | 16 (≈ 39.5 µM) | 95.8 | 8 (≈ 19.8 µM) | 16 (≈ 39.5 µM) | 0.23 | 16 (≈ 39.5 µM) | > 32 | > 32 |
| Cn1c(C2CC(=O)N(c3cccc4ccccc34)C2)nc2ccccc21 (stereo not given) | 48.4 | > 32 | 8 (≈ 23.4 µM) | > 32 | > 32 | > 32 | 8 (≈ 23.4 µM) | 16 (≈ 46.9 µM) | 96.9 | 8 (≈ 23.4 µM) | 8 (≈ 23.4 µM) | 1.08 | 16 (≈ 46.9 µM) | > 32 | > 32 |
| COc1cccc(N2CC(c3nc4ccccc4n3C)CC2=O)c1C (stereo not given) | 27.9 | > 32 | 16 (≈ 47.7 µM) | > 32 | > 32 | > 32 | > 32 | 16 (≈ 47.7 µM) | 88.2 | 16 (≈ 47.7 µM) | 32 (≈ 95.4 µM) | 2.27 | 32 (≈ 95.4 µM) | > 32 | > 32 |
| Cn1c(C2CC(=O)N(c3cccc(Br)c3O)C2)nc2ccccc21 (stereo not given) | 28.5 | > 32 | 16 (≈ 41.4 µM) | > 32 | > 32 | > 32 | 16 (≈ 41.4 µM) | 32 (≈ 82.8 µM) | 94.1 | 16 (≈ 41.4 µM) | 32 (≈ 82.8 µM) | 1.88 | 16 (≈ 41.4 µM) | > 32 | > 32 |
| Cn1c(C2CC(=O)N(c3ccc(O)c(O)c3)C2)nc2ccccc21 (stereo not given) | 10.7 | > 32 | > 32 | > 32 | > 32 | > 32 | > 32 | > 32 | 70.4 | > 32 | > 32 | 5.19 | > 32 | > 32 | > 32 |
| Cc1cccc(N2CC(c3nc4ccccc4n3C)CC2=O)c1 (stereo not given) | 4.9 | > 32 | > 32 | > 32 | > 32 | > 32 | > 32 | > 32 | 67.7 | > 32 | > 32 | 5.7 | > 32 | > 32 | > 32 |
| Cc1c(N2CC(c3nc4ccccc4n3C)CC2=O)cccc1[N+](=O)[O-] (stereo not given) | 42.8 | > 32 | 16 (≈ 45.7 µM) | > 32 | > 32 | > 32 | 16 (≈ 45.7 µM) | 32 (≈ 91.3 µM) | 98 | 8 (≈ 22.8 µM) | 16 (≈ 45.7 µM) | 1.52 | 16 (≈ 45.7 µM) | > 32 | > 32 |
| Cn1c(C2CC(=O)N(c3cccc(F)c3F)C2)nc2ccccc21 (stereo not given) | 35.3 | > 32 | 16 (≈ 48.9 µM) | > 32 | > 32 | > 32 | 16 (≈ 48.9 µM) | 32 (≈ 97.8 µM) | 91.8 | 16 (≈ 48.9 µM) | 32 (≈ 97.8 µM) | 0.227 | 32 (≈ 97.8 µM) | > 32 | > 32 |
| Cn1c(C2CC(=O)N(c3cccc(Cl)c3)C2)nc2ccccc21 (stereo not given) | 12.8 | > 32 | 32 (≈ 98.2 µM) | > 32 | > 32 | > 32 | 32 (≈ 98.2 µM) | 32 (≈ 98.2 µM) | 69.6 | 32 (≈ 98.2 µM) | > 32 | 3.53 | > 32 | > 32 | > 32 |
